Test results taken from patent publication US20120003191A1, “VALPROIC ACID, DERIVATIVES, ANALOGUES, AND COMPOSITIONS INCLUDING SAME AND METHODS FOR THEIR THERAPEUTIC USE” (priority 2009, published 2012).

How the values were obtained:
[1] = system: CD8 positive cytotoxic T-cells; assay: Quantification of CD8 positive cells in muscle; format: in vivo, mouse; conditions: 240 mg/kg i.p. twice daily for 5 weeks, quadriceps
Protocol: 240 mg/kg body weight of VPA was injected intraperitoneally twice daily into mdx/utrn^−/− mice (n=9) starting at 3 weeks of age, for a period of 5 weeks. Control mice were injected with saline (n=9). Body-weights were determined daily. 8 μm thick cryosections of the quadriceps muscles of saline and VPA injected mice were made. Cytotoxic T-cells were detected with a FITC-labeled rat anti-mouse CD8a antibody (BD Pharmingen, San Diego, Calif.) as follows: the sections were fixed in 4% paraformaldehyde for 5 minutes, washed in PBS three times for 5 minutes each, blocked with 5% BSA/PBS for 1 hour, anti-CD8 antibody added at 1:1000 dilution for 1 hour and washed in 1% BSA/PBS three times for 5 minutes each. The sections were mounted in Vectashield containing DAPI (Vector Laboratories). The number of CD8 positive cells and the total number of nuclei in the same field were counted in ten random fields for each mouse. The ratio of the number of CD positive cells to the total number of nuclei were calculated, averaged and plotted for the saline and VPA treated groups.

Akt = assay: Western blotting of activated and total Akt in quadriceps of mdx/utrn−/− mice; format: in vivo, mouse; conditions: 240 mg/kg i.p. twice daily for 5 weeks
Protocol: (§1) mdx/utrn−/− mice lack both dystrophin and utrophin, and were bred and genotyped as reported in Burkin, et al., Enhanced expression of the alpha 7 beta 1 integrin reduces muscular dystrophy and restores viability in dystrophic mice, J. Cell Biol. 152:1207-18 (2001). 240 mg/kg body weight of VPA was injected intraperitoneally twice daily into mdx/utrn^−/− mice (n=9) starting at 3 weeks of age, for a period of 5 weeks. Control mice were injected with saline (n=9). Body-weights were determined daily.
(§2) Cell lysates of differentiating cells on 60 mm dishes were prepared as follows: the cells were washed twice with PBS and 200 μl Triton X-100 lysis buffer (2% Triton X-100, 20 mM Tris-Cl, pH 7.4, 150 mM NaCl, 1 mM EDTA, 1 mM EGTA, 2.5 mM NaPPi, 1 mM β-glycerophosphate, 1 mM sodium vanadate, 1:200 Protease Inhibitor Cocktail (EMD Chemicals, San Diego, Calif.) and 1 mM PMSF) were added. The cells were scraped and transferred into Eppendorf tubes, the cell suspensions were triturated and centrifuged at 8000×g at 4° C. for 10 minutes, and the supernatants were collected. […] Protein concentrations were determined by the Bradford assay. […] The supernatants were collected and protein concentrations were determined spectrophotometrically at OD260 and OD280. […] ImageQuant analysis software (Molecular Dynamics, Sunnyvale, Calif.) was used to quantify band intensity.

type VI collagen = assay: Western blotting of type VI collagen in quadriceps; format: in vivo, mouse; conditions: 240 mg/kg i.p. twice daily for 5 weeks
Protocol: as §1, §2

α7A integrin = assay: Western blotting of α7A integrin in α7+/− myotubes; format: cell-based, mouse; conditions: 2 mM VPA for 72 hours
Protocol: (§3) α7^+/− myogenic cells were cultured on 1% gelatin-coated plastic plates in Ham's F-10 growth medium (20% FBS, 0.5% chick embryo extract, 5 ng/ml bFGF, 2 mM glutamine, 100 U/ml penicillin and 100 μg/ml streptomycin). After six passages, cells were grown in DMEM containing 20% FBS, 0.5% chick embryo extract, 2 mM glutamine, 100 U/ml penicillin and 100 μg/ml streptomycin. Differentiation was induced by switching the medium to DMEM containing 2% horse serum and antibiotics when cells attained 90% confluence. After 48 hours of differentiation, 2 mM VPA was added and supplied fresh every 24 hours. Wortmannin was used at 100 nM and added fresh every 24 hours.
as §2, with “added.” for “added. The cells were scraped and transferred into Eppendorf tubes, the cell suspensions were triturated and centrifuged at 8000×g at 4° C. for 10 minutes, and the supernatants were collected.”

α7 integrin = assay: Western blotting of α7 integrin in muscle extracts of mdx/utrn−/− mice; format: in vivo, mouse; conditions: 240 mg/kg i.p. twice daily for 5 weeks
Protocol: as §1, §2

mdx/utrn−/− mice [2] = assay: Contracture assay in mdx/utrn−/− mice; format: in vivo, mouse; conditions: 35th day of treatment
Protocol: as §1, with “daily. On the 35th day of treatment, mdx/utrn^−/− mice injected with saline (n=9) or VPA (n=9) were tested for contractures in their hind limbs as follows: mice were placed on a flat table and were lifted by their tails so that their fore-limbs touched the table-surface and their hindquarters were in air. The positions of the hind-limbs were photographed. Normally, mice in this position extend their hind-limbs. The presence of contractures in dystrophic mice prevents full extension.” for “daily.”

ERK = assay: Western blotting of activated ERK in α7+/− myotubes; format: cell-based, mouse; conditions: VPA treated myotubes
Protocol: as §3
as §2, with “added.” for “added. The cells were scraped and transferred into Eppendorf tubes, the cell suspensions were triturated and centrifuged at 8000×g at 4° C. for 10 minutes, and the supernatants were collected.”

mdx/utrn−/− mice [3] = assay: Masson's trichrome staining of quadriceps cryosections; format: in vivo, mouse; conditions: 240 mg/kg i.p. twice daily for 5 weeks
Protocol: as §1, with “daily. Masson's trichrome staining kit (American MasterTech Scientific Inc., Lodi, Calif.) was used to stain 8 μm muscle cryosections, as per the manufacturer's instructions.” for “daily.”

CCCC(CCC)C(=O)O [VPA, valproic acid]
decrease of CD8 positive cytotoxic T-cell content [1]: approximately 2.1 fold | levels of activated Akt in muscle (Akt): Significantly higher levels | less type VI collagen in muscle than control mice (type VI collagen): approximately 3 fold | α7A integrin isoform increase (α7A integrin): 2 fold | α7 integrin in muscle extracts, saline versus VPA injected mice (α7 integrin): did not show changes | proportion of mice with contractures (mdx/utrn−/− mice [2]; 240 mg/kg i.p. twice daily, n=9): 11.1% | proportion with contractures, saline-injected group higher compared to VPA-injected group (mdx/utrn−/− mice [2]): approximately 4 fold | levels of activated ERK (ERK): significantly lower levels | collagen staining in quadriceps compared to controls (mdx/utrn−/− mice [3]): lower intensity of collagen staining
